Measured values reported in patent publication US9637483B2, “Heterocyclic compound” (TAKEDA PHARMACEUTICAL COMPANY LIMITED, priority 2013, dated 2017).

What was measured:
Assay type in all cases: biochemical
JAK1 = biological target: T1, JAK1 (Homo sapiens, UniProt P23458); experiment: JAK1 enzyme inhibition test (LANCE method); details: 1 μM test compound; for inhibition at 1 µM: read-out: JAK1 enzyme inhibitory activity (%, 1 μM)
T1 construct: purchased Invitrogen
Summary of the method: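 TR-FRET (LANCE) with ULight-JAK1 peptide (300 nM working solution) and ATP (150 μM working solution) in HEPES pH 7.5, MgCl2, EGTA, DTT buffer; 1 h at room temperature. EDTA stop plus Eu-anti-phosphotyrosine antibody, 665 nm read after 1 h. Inhibition relative to enzyme-free wells as 100%.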

JAK2 = biological target: T2, JAK2 (Homo sapiens, UniProt O60674); experiment: JAK2 enzyme inhibition test (LANCE method); details: 1 μM test compound; for inhibition at 1 µM: read-out: JAK2 enzyme inhibitory activity (%, 1 μM)
T2 construct: purchased Invitrogen
Summary of the method: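 Recombinant JAK2 (6 ng/mL solution) phosphorylated ULight-JAK1 peptide (300 nM solution) with ATP (45 μM solution) in pH 7.5 HEPES/MgCl2/DTT buffer for 1 hr at room temperature. After EDTA stop and europium anti-phosphotyrosine antibody for 1 hr, TR-FRET read at 665 nm; inhibition relative to enzyme-free wells as 100%.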

JAK3 = biological target: T3, JAK3 (Homo sapiens, UniProt P52333); experiment: JAK3 enzyme inhibition test (LANCE method); details: 1 μM test compound; for inhibition at 1 µM: read-out: JAK3 enzyme inhibitory activity (%, 1 μM)
T3 construct: purchased Invitrogen
T3 sequence (P52333 1-1124): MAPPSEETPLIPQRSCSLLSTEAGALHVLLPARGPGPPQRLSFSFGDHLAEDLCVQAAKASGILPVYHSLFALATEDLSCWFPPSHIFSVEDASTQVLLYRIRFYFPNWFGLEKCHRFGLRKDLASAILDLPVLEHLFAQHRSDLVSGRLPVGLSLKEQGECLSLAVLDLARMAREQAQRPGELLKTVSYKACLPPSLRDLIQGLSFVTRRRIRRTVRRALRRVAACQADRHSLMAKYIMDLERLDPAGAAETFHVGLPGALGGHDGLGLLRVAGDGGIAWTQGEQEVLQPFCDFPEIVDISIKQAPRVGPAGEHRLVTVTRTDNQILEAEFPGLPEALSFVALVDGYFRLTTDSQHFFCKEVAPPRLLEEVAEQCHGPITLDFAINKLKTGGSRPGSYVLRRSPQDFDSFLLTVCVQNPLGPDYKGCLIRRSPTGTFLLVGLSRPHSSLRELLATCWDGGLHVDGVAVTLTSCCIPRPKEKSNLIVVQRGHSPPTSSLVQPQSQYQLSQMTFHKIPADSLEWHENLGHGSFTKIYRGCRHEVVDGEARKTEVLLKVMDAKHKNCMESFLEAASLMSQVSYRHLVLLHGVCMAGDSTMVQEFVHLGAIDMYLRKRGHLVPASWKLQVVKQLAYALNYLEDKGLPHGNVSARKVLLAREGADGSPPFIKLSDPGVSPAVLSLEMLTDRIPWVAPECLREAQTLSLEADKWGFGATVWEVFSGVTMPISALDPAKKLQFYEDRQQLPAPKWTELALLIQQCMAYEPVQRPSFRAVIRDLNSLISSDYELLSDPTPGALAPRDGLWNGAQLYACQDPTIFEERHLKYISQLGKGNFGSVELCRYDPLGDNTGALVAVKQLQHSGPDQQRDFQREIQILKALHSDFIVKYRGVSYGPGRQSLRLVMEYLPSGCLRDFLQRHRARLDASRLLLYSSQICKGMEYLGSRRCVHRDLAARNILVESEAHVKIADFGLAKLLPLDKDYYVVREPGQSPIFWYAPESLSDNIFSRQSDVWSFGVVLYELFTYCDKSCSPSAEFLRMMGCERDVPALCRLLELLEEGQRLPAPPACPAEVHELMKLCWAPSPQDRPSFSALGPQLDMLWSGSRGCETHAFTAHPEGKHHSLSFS
Summary of the method: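 Recombinant JAK3 (12 ng/mL solution) with ULight-JAK1 peptide (300 nM solution) and ATP (15 μM solution) in HEPES pH 7.5 buffer, 1 h at room temperature. EDTA stop with Eu-anti-phosphotyrosine antibody; TR-FRET at 665 nm. Inhibition relative to enzyme-free wells as 100%.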

TYK2 = biological target: T4, TYK2 (Homo sapiens, UniProt P29597); experiment: TYK2 enzyme inhibition test (LANCE method); details: 1 μM test compound; for inhibition at 1 µM: read-out: TYK2 enzyme inhibitory activity (%, 1 μM)
T4 construct: purchased Invitrogen
Summary of the method: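 Recombinant TYK2 (375 ng/mL working solution) with ULight-JAK1 peptide (300 nM working solution) and ATP (30 μM working solution) in HEPES pH 7.5 buffer with MgCl2, EGTA, DTT, Tween20, BSA, reacted 1 h at RT. EDTA-stopped, Eu-anti-phosphotyrosine TR-FRET read at 665 nm; inhibition relative to enzyme-free wells as 100%.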

T4 sequence (P29597 whole entry): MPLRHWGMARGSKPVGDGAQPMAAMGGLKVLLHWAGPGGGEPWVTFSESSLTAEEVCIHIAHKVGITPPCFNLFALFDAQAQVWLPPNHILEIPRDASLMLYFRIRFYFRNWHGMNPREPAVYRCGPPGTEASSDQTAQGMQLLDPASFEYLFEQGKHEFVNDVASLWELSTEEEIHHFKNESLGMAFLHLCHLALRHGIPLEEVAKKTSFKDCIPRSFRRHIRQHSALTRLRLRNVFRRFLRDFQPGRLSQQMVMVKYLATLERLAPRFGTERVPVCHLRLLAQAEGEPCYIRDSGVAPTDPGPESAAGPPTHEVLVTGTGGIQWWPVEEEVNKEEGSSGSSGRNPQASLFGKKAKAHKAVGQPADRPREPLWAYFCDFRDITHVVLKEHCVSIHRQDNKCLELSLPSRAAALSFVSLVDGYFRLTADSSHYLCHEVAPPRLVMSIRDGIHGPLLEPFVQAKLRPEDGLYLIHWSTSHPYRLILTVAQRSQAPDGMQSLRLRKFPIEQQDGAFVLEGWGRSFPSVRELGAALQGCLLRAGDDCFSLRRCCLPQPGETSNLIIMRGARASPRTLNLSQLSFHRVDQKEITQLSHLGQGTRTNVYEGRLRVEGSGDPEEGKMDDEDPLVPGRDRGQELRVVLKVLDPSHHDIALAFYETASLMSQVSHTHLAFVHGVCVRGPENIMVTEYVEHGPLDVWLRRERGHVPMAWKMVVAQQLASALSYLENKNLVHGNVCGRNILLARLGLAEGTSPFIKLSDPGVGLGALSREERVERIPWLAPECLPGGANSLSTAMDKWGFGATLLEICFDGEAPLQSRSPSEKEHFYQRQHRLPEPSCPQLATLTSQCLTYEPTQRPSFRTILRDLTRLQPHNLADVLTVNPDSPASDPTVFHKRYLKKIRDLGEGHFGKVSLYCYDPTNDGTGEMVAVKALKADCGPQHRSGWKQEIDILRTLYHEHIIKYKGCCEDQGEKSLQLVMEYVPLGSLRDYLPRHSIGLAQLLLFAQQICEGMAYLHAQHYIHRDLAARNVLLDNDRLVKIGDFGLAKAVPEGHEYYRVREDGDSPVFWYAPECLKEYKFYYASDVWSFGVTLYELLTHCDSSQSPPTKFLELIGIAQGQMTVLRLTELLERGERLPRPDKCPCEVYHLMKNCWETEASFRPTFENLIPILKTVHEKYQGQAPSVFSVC
T1 sequence (P23458 whole entry): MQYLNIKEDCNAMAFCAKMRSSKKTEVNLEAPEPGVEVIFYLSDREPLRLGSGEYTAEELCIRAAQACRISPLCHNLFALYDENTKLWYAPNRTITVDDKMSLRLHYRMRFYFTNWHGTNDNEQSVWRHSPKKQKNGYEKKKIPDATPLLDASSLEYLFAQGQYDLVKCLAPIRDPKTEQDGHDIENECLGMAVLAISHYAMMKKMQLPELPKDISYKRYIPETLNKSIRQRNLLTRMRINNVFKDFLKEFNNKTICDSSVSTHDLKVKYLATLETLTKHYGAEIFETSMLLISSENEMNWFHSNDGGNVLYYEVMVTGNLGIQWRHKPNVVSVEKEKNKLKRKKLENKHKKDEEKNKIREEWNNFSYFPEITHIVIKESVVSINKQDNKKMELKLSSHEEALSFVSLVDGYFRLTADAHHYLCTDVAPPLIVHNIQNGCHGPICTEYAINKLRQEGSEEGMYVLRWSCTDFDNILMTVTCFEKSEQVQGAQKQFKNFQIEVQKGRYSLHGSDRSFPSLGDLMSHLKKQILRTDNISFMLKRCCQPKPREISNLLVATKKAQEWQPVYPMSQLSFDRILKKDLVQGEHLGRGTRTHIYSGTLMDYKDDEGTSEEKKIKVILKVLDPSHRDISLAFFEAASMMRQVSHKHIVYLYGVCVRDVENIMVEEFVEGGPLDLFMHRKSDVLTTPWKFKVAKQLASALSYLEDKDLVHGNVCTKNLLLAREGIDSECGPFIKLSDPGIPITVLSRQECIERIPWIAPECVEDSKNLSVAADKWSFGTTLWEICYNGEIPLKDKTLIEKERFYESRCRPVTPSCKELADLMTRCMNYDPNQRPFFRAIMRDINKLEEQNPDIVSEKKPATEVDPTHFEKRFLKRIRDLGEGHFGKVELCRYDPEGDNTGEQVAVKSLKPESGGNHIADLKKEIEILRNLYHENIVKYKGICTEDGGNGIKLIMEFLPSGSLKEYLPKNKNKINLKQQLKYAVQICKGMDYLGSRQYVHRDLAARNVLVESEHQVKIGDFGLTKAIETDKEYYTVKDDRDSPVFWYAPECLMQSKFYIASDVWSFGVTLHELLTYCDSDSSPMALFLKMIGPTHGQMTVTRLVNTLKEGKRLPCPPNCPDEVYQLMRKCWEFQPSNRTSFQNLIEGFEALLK
T2 sequence (O60674 whole entry): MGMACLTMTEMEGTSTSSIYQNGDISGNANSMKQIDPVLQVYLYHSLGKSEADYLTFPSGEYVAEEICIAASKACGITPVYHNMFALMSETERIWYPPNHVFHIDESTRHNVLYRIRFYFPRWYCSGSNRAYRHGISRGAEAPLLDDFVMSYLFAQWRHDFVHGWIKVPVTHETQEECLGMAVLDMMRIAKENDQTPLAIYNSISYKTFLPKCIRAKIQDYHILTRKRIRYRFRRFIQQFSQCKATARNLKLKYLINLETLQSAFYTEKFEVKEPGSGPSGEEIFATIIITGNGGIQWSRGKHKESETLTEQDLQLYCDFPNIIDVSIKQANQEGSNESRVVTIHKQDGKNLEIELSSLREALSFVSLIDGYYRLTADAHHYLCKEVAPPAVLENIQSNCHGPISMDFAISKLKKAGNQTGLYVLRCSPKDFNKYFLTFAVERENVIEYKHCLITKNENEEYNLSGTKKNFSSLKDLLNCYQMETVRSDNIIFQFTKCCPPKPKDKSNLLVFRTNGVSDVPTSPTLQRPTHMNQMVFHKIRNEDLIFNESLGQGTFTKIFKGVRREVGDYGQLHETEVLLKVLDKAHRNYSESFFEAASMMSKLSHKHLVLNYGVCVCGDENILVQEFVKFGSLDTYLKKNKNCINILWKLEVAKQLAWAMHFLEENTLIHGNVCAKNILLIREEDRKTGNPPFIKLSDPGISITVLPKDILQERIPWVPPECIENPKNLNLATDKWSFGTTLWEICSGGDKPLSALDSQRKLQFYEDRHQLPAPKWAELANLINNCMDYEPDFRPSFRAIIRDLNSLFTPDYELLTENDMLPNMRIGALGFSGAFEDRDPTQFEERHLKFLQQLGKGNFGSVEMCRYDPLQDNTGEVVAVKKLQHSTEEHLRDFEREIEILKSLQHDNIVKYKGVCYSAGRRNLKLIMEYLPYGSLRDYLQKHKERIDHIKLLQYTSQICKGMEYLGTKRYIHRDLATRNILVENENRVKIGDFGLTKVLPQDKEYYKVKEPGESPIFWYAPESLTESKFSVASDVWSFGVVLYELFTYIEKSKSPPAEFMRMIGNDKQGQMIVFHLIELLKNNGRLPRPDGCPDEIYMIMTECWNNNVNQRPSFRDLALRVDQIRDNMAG

inhibition at 1 µM (JAK1) [%] | inhibition at 1 µM (JAK2) [%] | inhibition at 1 µM (JAK3) [%] | inhibition at 1 µM (TYK2) [%] | JAK1 enzyme inhibitory activity (%, 1 μM) (JAK1) [%] | JAK2 enzyme inhibitory activity (%, 1 μM) (JAK2; 1 µM) [%] | JAK3 enzyme inhibitory activity (%, 1 μM) (JAK3; 1 µM) [%] | TYK2 enzyme inhibitory activity (%, 1 μM) (TYK2; 1 µM) [%] | Compound
96 | 99 | 99 | 100 | – | – | – | – | COC1(c2cc(-c3cn(C(C4CC4)C4CC4)c(=O)c4c(N)n[nH]c34)nn2C)CN(S(=O)(=O)C(C)C)C1 [Example 90, 3-amino-5-(dicyclopropylmethyl)-7-(5-(1-(isopropylsulfonyl)-3-methoxyazetidin-3-yl)-1-methyl-1H-pyrazol-3-yl)-1,5-dihydro-4H-pyrazolo[4,3-c]pyridin-4-one]
96 | 88 | 97 | 99 | – | – | – | – | C[C@H](C1CC1)n1cc(-c2cc(C(C)(C)O)n(C)n2)c2[nH]nc(N)c2c1=O [Example 91, 3-amino-5-((1R)-1-cyclopropylethyl)-7-(5-(2-hydroxypropan-2-yl)-1-methyl-1H-pyrazol-3-yl)-1,5-dihydro-4H-pyrazolo[4,3-c]pyridin-4-one]
100 | 100 | 99 | 99 | – | – | – | – | CC(C)N1CCN(c2cc(-c3cn([C@@H](C)C4CC4)c(=O)c4c(N)n[nH]c34)nn2C)CC1=O [Example 92, 3-amino-5-((1S)-1-cyclopropylethyl)-7-(5-(4-isopropyl-3-oxopiperazin-1-yl)-1-methyl-1H-pyrazol-3-yl)-1,5-dihydro-4H-pyrazolo[4,3-c]pyridin-4-one]
100 | 100 | 100 | 99 | – | – | – | – | C[C@@H](C1CC1)n1cc(-c2cc(N3CCS(=O)(=O)C(C)(C)C3)n(C)n2)c2[nH]nc(N)c2c1=O [Example 95, 3-amino-5-((1S)-1-cyclopropylethyl)-7-(5-(2,2-dimethyl-1,1-dioxidothiomorpholin-4-yl)-1-methyl-1H-pyrazol-3-yl)-1,5-dihydro-4H-pyrazolo[4,3-c]pyridin-4-one]
99 | 100 | 100 | 100 | – | – | – | – | C[C@@H](C1CC1)n1cc(-c2cc(N3CCS(=O)(=O)CC3)n(C)n2)c2[nH]nc(N)c2c1=O [Example 96, 3-amino-5-((1S)-1-cyclopropylethyl)-7-(5-(1,1-dioxidothiomorpholin-4-yl)-1-methyl-1H-pyrazol-3-yl)-1,5-dihydro-4H-pyrazolo[4,3-c]pyridin-4-one]
97 | 99 | 99 | 100 | – | – | – | – | COC1(c2cc(-c3cn([C@@H](C)C4CC4)c(=O)c4c(N)n[nH]c34)nn2C)CN(C(=O)C(C)C)C1 [Example 97, 3-amino-5-((1S)-1-cyclopropylethyl)-7-(5-(1-isobutyryl-3-methoxyazetidin-3-yl)-1-methyl-1H-pyrazol-3-yl)-1,5-dihydro-4H-pyrazolo[4,3-c]pyridin-4-one]
97 | 100 | 100 | 100 | – | – | – | – | COC1(c2cc(-c3cn([C@@H](C)C4CC4)c(=O)c4c(N)n[nH]c34)nn2C)CN(S(=O)(=O)C(C)C)C1 [Example 98, 3-amino-5-((1S)-1-cyclopropylethyl)-7-(5-(1-(isopropylsulfonyl)-3-methoxyazetidin-3-yl)-1-methyl-1H-pyrazol-3-yl)-1,5-dihydro-4H-pyrazolo[4,3-c]pyridin-4-one]
97 | 99 | 99 | 99 | – | – | – | – | CC(C)[C@H](C)n1cc(-c2cc(N3CC4(COC4)C3)n(C)n2)c2[nH]nc(N)c2c1=O [Example 105, 3-amino-5-((2S)-3-methylbutan-2-yl)-7-(1-methyl-5-(2-oxa-6-azaspiro[3.3]hept-6-yl)-1H-pyrazol-3-yl)-1,5-dihydro-4H-pyrazolo[4,3-c]pyridin-4-one]

Further lines, the molecule ahead of its results:

Compound | inhibition at 1 µM (JAK1) [%] | inhibition at 1 µM (JAK2) [%] | inhibition at 1 µM (JAK3) [%] | inhibition at 1 µM (TYK2) [%] | JAK1 enzyme inhibitory activity (%, 1 μM) (JAK1) [%] | JAK2 enzyme inhibitory activity (%, 1 μM) (JAK2; 1 µM) [%] | JAK3 enzyme inhibitory activity (%, 1 μM) (JAK3; 1 µM) [%] | TYK2 enzyme inhibitory activity (%, 1 μM) (TYK2; 1 µM) [%]
C[C@@H](C1CC1)n1cc(-c2cc(N3CCC(O)(C(F)(F)F)CC3)n(C)n2)c2[nH]nc(N)c2c1=O [Example 94, 3-amino-5-((1S)-1-cyclopropylethyl)-7-(5-(4-hydroxy-4-(trifluoromethyl)piperidin-1-yl)-1-methyl-1H-pyrazol-3-yl)-1,5-dihydro-4H-pyrazolo[4,3-c]pyridin-4-one] | 100 | 100 | 100 | 99 | – | – | – | –
CC(n1cc(-c2cc(N3CCOCC3)n(C)n2)c2[nH]nc(N)c2c1=O)C(C)(C)O (stereo not drawn) [Example 99, 3-amino-5-(3-hydroxy-3-methylbutan-2-yl)-7-(1-methyl-5-(morpholin-4-yl)-1H-pyrazol-3-yl)-1,5-dihydro-4H-pyrazolo[4,3-c]pyridin-4-one] | 83 | 85 | 97 | 99 | – | – | – | –
CC(C)[C@@H](C)n1cc(-c2cc(C(C)(C)O)n(C)n2)c2[nH]nc(N)c2c1=O [Example 100, 3-amino-7-(5-(2-hydroxypropan-2-yl)-1-methyl-1H-pyrazol-3-yl)-5-((2R)-3-methylbutan-2-yl)-1,5-dihydro-4H-pyrazolo[4,3-c]pyridin-4-one] | 82 | 65 | 86 | 96 | – | – | – | –
CC(C)[C@H](C)n1cc(-c2cc(N(C)C(C)C)n(C)n2)c2[nH]nc(N)c2c1=O [Example 101, 3-amino-7-(5-(isopropyl(methyl)amino)-1-methyl-1H-pyrazol-3-yl)-5-((2S)-3-methylbutan-2-yl)-1,5-dihydro-4H-pyrazolo[4,3-c]pyridin-4-one] | 96 | 97 | 99 | 100 | – | – | – | –
CC(C)[C@H](C)n1cc(-c2cc(N3CCN(S(=O)(=O)C(C)C)CC3)n(C)n2)c2[nH]nc(N)c2c1=O [Example 102, 3-amino-7-(5-(4-(isopropylsulfonyl)piperazin-1-yl)-1-methyl-1H-pyrazol-3-yl)-5-((2S)-3-methylbutan-2-yl)-1,5-dihydro-4H-pyrazolo[4,3-c]pyridin-4-one] | 97 | 98 | 99 | 100 | – | – | – | –
CC(C)[C@H](C)n1cc(-c2cc(N3CCCC3CN(C)C)n(C)n2)c2[nH]nc(N)c2c1=O (stereo partly drawn) [Example 103, 3-amino-7-(5-(2-((dimethylamino)methyl)pyrrolidin-1-yl)-1-methyl-1H-pyrazol-3-yl)-5-((2S)-3-methylbutan-2-yl)-1,5-dihydro-4H-pyrazolo[4,3-c]pyridin-4-one] | – | 93 | 97 | 96 | 51 | – | – | –
CC(C)[C@H](C)n1cc(-c2cc(N3CCCC3CN(C)C)n(C)n2)c2[nH]nc(N)c2c1=O (stereo partly drawn) [Example 104, 3-amino-7-(5-(2-((dimethylamino)methyl)pyrrolidin-1-yl)-1-methyl-1H-pyrazol-3-yl)-5-((2S)-3-methylbutan-2-yl)-1,5-dihydro-4H-pyrazolo[4,3-c]pyridin-4-one] | – | – | – | – | 72 | 96 | 98 | 100
